Drawing on ChEMBL document CHEMBL5385944, “Hydrazyl hydroxycoumarins as new potential conquerors towards Pseudomonas aeruginosa” (Bioorg Med Chem Lett, 2024), this text covers MIC for 9 compounds.

The structures appear in SMILES notation. In brackets after ≈: the same amount, converted by molar mass.

Common to all, as to assay type: functional
Assay [1] relates to Pseudomonas aeruginosa. Kind of assay: Antibacterial activity against Pseudomonas aeruginosa ATCC 90027 assessed as reduction in bacterial growth by CLSI protocol based method.
For assay [2], the system named is Pseudomonas aeruginosa. The assay can be described thus: Antibacterial activity against Pseudomonas aeruginosa ATCC 10104 assessed as reduction in bacterial growth by CLSI protocol based method.
Assay [3] has as its system Staphylococcus aureus. Kind of assay: Antibacterial activity against Staphylococcus aureus ATCC 29213 assessed as reduction in bacterial growth by CLSI protocol based method.
Assay [4] deals with Klebsiella pneumoniae. Kind of assay: Antibacterial activity against Klebsiella pneumoniae assessed as reduction in bacterial growth by CLSI protocol based method.
For assay [5], the system named is Staphylococcus aureus. Kind of assay: Antibacterial activity against Staphylococcus aureus ATCC 25923 assessed as reduction in bacterial growth by CLSI protocol based method.
The test system of assay [6] is Escherichia coli. Kind of assay: Antibacterial activity against Escherichia coli ATCC 25922 assessed as reduction in bacterial growth by CLSI protocol based method.
Assay [7] relates to Pseudomonas aeruginosa. Kind of assay: Antibacterial activity against Pseudomonas aeruginosa ATCC 27853 assessed as reduction in bacterial growth by CLSI protocol based method.
In assay [8] the test system is Staphylococcus aureus. The assay can be described thus: Antibacterial activity against methicillin resistant Staphylococcus aureus 43300 assessed as reduction in bacterial growth by CLSI protocol based method.
Assay [9] deals with Enterococcus faecalis. The assay can be described thus: Antibacterial activity against Enterococcus faecalis assessed as reduction in bacterial growth by CLSI protocol based method.
The subject of assay [10] is Staphylococcus aureus. Kind of assay: Antibacterial activity against methicillin resistant Staphylococcus aureus assessed as reduction in bacterial growth by CLSI protocol based method.
The test system of assay [11] is Pseudomonas aeruginosa. The assay can be described thus: Antibacterial activity against Pseudomonas aeruginosa assessed as reduction in bacterial growth by CLSI protocol based method.
Assay [12] concerns Acinetobacter baumannii. Kind of assay: Antibacterial activity against Acinetobacter baumannii assessed as reduction in bacterial growth by CLSI protocol based method.

As a reminder, the MIC is the lowest concentration that inhibits growth of the organism. On to `Nc1ncc(C(=O)N/N=C/c2c(O)ccc3ccc(=O)oc23)s1`, for which the MIC in assay [1] was 1 µg/mL (≈ 3.03 µM); in assay [2], 2 µg/mL (≈ 6.05 µM); in assay [3] it was 256 µg/mL (≈ 775 µM); in assay [4], 8 µg/mL (≈ 24.2 µM); in [5], 1 µg/mL (≈ 3.03 µM); in [6], 128 µg/mL (≈ 387 µM). In addition, the MIC was 32 µg/mL (≈ 96.9 µM) in assay [7]; 64 µg/mL (≈ 194 µM) in [8]; 128 µg/mL (≈ 387 µM) in assay [9]; 16 µg/mL (≈ 48.4 µM) in assay [10]; 256 µg/mL (≈ 775 µM) in assay [11]; 1 µg/mL (≈ 3.03 µM) in assay [12].

For the compound `Cc1cc(NS(=O)(=O)c2ccc(N/N=C/c3c(O)ccc4ccc(=O)oc34)cc2)no1`, the MIC in assay [1] was 256 µg/mL (≈ 581 µM); in assay [2] it was 256 µg/mL (≈ 581 µM); in assay [3], 512 µg/mL (≈ 1160 µM); in [4] it was 256 µg/mL (≈ 581 µM); in [5] it was 256 µg/mL (≈ 581 µM); in assay [6], 512 µg/mL (≈ 1160 µM). In addition, the MIC in assay [7] stood at 512 µg/mL (≈ 1160 µM); in assay [8], 512 µg/mL (≈ 1160 µM); in [9] it was 256 µg/mL (≈ 581 µM); in [10], 256 µg/mL (≈ 581 µM); in assay [11], 512 µg/mL (≈ 1160 µM); in [12], 256 µg/mL (≈ 581 µM).

Turning to `N/N=C/c1c(O)ccc2ccc(=O)oc12`, the MIC in assay [1] is 512 µg/mL (≈ 2510 µM); in [2] it was 512 µg/mL (≈ 2510 µM); in [3] it was 512 µg/mL (≈ 2510 µM); in assay [4], 128 µg/mL (≈ 627 µM); in [5], 16 µg/mL (≈ 78.4 µM); in assay [6], 32 µg/mL (≈ 157 µM). The minimal inhibitory concentration (MIC) in assay [7] is 128 µg/mL (≈ 627 µM); in assay [8], 128 µg/mL (≈ 627 µM); in assay [9], 512 µg/mL (≈ 2510 µM); in assay [10] it was 128 µg/mL (≈ 627 µM); in [11] it was 512 µg/mL (≈ 2510 µM); in assay [12] it was 256 µg/mL (≈ 1250 µM).

In the case of `O=c1ccc2ccc(O)c(/C=N/NS(=O)(=O)c3cccc4c3OCC4)c2o1`, the MIC in assay [1], in [2], in assay [3], in assay [4], in assay [5] and in assay [6] was 512 µg/mL (≈ 1330 µM) each time. Also, the MIC in [7], in [8], in assay [9], in assay [10], in assay [11] and in [12] was 512 µg/mL (≈ 1330 µM) each time.

`O=C(N/N=C/c1c(O)ccc2ccc(=O)oc12)c1ccccc1`: the MIC in [1] was 32 µg/mL (≈ 104 µM); in assay [2] it was 1 µg/mL (≈ 3.24 µM); in assay [3] it was 512 µg/mL (≈ 1660 µM); in assay [4], 32 µg/mL (≈ 104 µM); in [5] it was 2 µg/mL (≈ 6.49 µM); in [6], 2 µg/mL (≈ 6.49 µM). For the same compound, the MIC in assay [7] was 256 µg/mL (≈ 830 µM); in [8], 512 µg/mL (≈ 1660 µM); in assay [9], 128 µg/mL (≈ 415 µM); in assay [10], 256 µg/mL (≈ 830 µM); in assay [11], 16 µg/mL (≈ 51.9 µM); in assay [12], 512 µg/mL (≈ 1660 µM).

In the case of `O=c1ccc2ccc(O)c(/C=N/NS(=O)(=O)Cc3ccccc3)c2o1`, the MIC was 512 µg/mL (≈ 1430 µM) in [1]; 512 µg/mL (≈ 1430 µM) in [2]; 16 µg/mL (≈ 44.6 µM) in assay [3]; 512 µg/mL (≈ 1430 µM) in assay [4]; 38 µg/mL (≈ 106 µM) in assay [5]; 256 µg/mL (≈ 714 µM) in assay [6]. Further, the MIC in assay [7] worked out at 512 µg/mL (≈ 1430 µM); in [8] it was 512 µg/mL (≈ 1430 µM); in assay [9], 128 µg/mL (≈ 357 µM); in assay [10] it was 256 µg/mL (≈ 714 µM); in assay [11], 512 µg/mL (≈ 1430 µM); in [12], 512 µg/mL (≈ 1430 µM).

Turning to `Nc1ccc(C(=O)N/N=C/c2c(O)ccc3ccc(=O)oc23)cc1`, the MIC in assay [2] amounted to 512 µg/mL (≈ 1580 µM); in assay [3], 512 µg/mL (≈ 1580 µM); in assay [4], 256 µg/mL (≈ 792 µM); in [5], 512 µg/mL (≈ 1580 µM); in [6], 512 µg/mL (≈ 1580 µM); in assay [7] it was 512 µg/mL (≈ 1580 µM). The minimum inhibitory concentration (MIC) in [8] is 512 µg/mL (≈ 1580 µM); in assay [9], 32 µg/mL (≈ 99 µM); in [10], 512 µg/mL (≈ 1580 µM); in assay [11] it was 512 µg/mL (≈ 1580 µM); in assay [12], 256 µg/mL (≈ 792 µM).

On to `O=c1ccc2ccc(O)c(/C=N/NS(=O)(=O)c3ccc(Cl)cc3)c2o1`, for which the MIC worked out at 512 µg/mL (≈ 1350 µM) in [1]; 512 µg/mL (≈ 1350 µM) in [2]; 4 µg/mL (≈ 10.6 µM) in assay [3]; 256 µg/mL (≈ 676 µM) in assay [4]; 512 µg/mL (≈ 1350 µM) in assay [5]; 256 µg/mL (≈ 676 µM) in [6]. Besides, the MIC in [7] worked out at 512 µg/mL (≈ 1350 µM); in assay [8] it was 512 µg/mL (≈ 1350 µM); in assay [9] it was 512 µg/mL (≈ 1350 µM); in assay [10], 512 µg/mL (≈ 1350 µM); in assay [11] it was 256 µg/mL (≈ 676 µM); in assay [12], 512 µg/mL (≈ 1350 µM).

For the compound `O=C(N/N=C/c1c(O)ccc2ccc(=O)oc12)c1ccc(Cl)cc1`, the MIC in assay [1] was determined as 256 µg/mL (≈ 747 µM); in [2], 32 µg/mL (≈ 93.4 µM); in assay [3] it was 256 µg/mL (≈ 747 µM); in assay [4], 256 µg/mL (≈ 747 µM); in [5], 256 µg/mL (≈ 747 µM); in assay [6], 256 µg/mL (≈ 747 µM). The MIC stood at 256 µg/mL (≈ 747 µM) in assay [7]; 512 µg/mL (≈ 1490 µM) in assay [8]; 256 µg/mL (≈ 747 µM) in [9]; 512 µg/mL (≈ 1490 µM) in assay [10]; 256 µg/mL (≈ 747 µM) in [11]; 256 µg/mL (≈ 747 µM) in assay [12].
